Laboratory results: patent US12246044B2, “Bacterial and cell compositions for the treatment of colorectal cancer and methods for assessing a prognosis for patients having the same” (priority 2017, dated 2025)

Tests used:
MC38 tumors = assay: FMT avatar mice (GF mice colonized with PCAC patient colonic content), MC38, OXA; format: in vivo, C57BL/6J mice; conditions: 12 PCAC patient feces tested
Experimental: (§1) Syngeneic C57BL/6J mice were implanted with 1×10^6 MC38 WT cells subcutaneously and treated intraperitoneally (i.p.) when tumors were 20 to 30 mm^2 in size with 10 mg/kg oxaliplatin or vehicule (PBS). The composition of the commensal gut microbiota in the treated and non-treated groups was maintained synchronized by cohousing. Tumor size was routinely monitored every 3 days by means of a caliper.
Frozen fecal samples were thawed and thoroughly vortexed. Large particulate material was allowed to settle by gravity. 200 μl of supernatant was administered in a single dose by oral gavage. Additionally, an extra 100 μl was topically applied onto the fur of each animal. The resulting gnotobiotic mice were maintained in positive pressurized isolators with irradiated food and autoclaved water. […]
Data analyses and representations were performed either with the statistical environment R, Microsoft Excel (Microsoft Co., Redmont, WA, USA) or Prism 5 (GraphPad, San Diego, CA, USA). Tumor growth was analysed with dedicated software (https://kroemerlab.shinyapps.io/TumGrowth). Briefly, data was subjected to a linear mixed effect modeling applied to log pre-processed tumor surfaces. p-values were calculated by testing jointly whether both tumor growth slopes and intercepts (on a log scale) were different between treatment groups of interests. […]

[1] = system: small intestine enteroids; assay: OXA treatment of stem cell derived small intestine enteroids in vitro; format: cell-based, C57BL/6J mice; conditions: culminating in calreticulin cell surface exposure, data not shown
Experimental: Crypts were isolated and enriched from the ileum of 8-12 week old C57BL/6J mice as previously described (24) with the following modifications. Briefly, washed pieces of ileum were incubated in crypt chelating buffer (2 mM EDTA in PBS) for 30 minutes on ice. Following the removal of crypt chelating buffer, fragments were vigorously rinsed 3 times with PBS containing 10% FCS and filtered through a 70-μm cell strainer (BD Bioscience). Crypts were pelleted, washed with Advanced DMEM/F12 (ADF) (Invitrogen), resuspended in 1 mL of Matrigel growth factor reduced basement membrane matrix (Corning) and 50 uL drops were pipetted into a 24 well plate. Crypts were overlayed with ADF containing the following: 100 U/mL penicillin G sodium, 100 μg/mL streptomycin sulphate, 2 mM L-glutamine, 10 mM HEPES, 1× N2 supplement, 1× B27 supplement, 50 ng/mL mEGF, 100 ng/mL mNoggin (Peprotech, Hamburg, Germany), N-acetylcysteine (Sigma) (reagents from Invitrogen unless otherwise indicated) and 10% conditioned medium of R-Spondin-1 transfected HEK 293T cells.
IEC suspensions were obtained from enteroids by means of 3 wash dissociation method, as described above. […]

ileal and colonic IEC = assay: Immunohistochemistry of cleaved caspase-3 in colon and ileal mucosae after OXA i.p.; format: in vivo, mice; conditions: 6 h after OXA i.p.; ileal versus colonic IEC
Experimental: Donor mice were treated with oxaliplatin (10 mg/kg) i.p. for 6 h to induce gut cell death. Control animals were treated with vehicle (PBS) alone. The composition of the commensal gut microbiota in the treated and non-treated groups was maintained synchronized by cohousing. At the end of the treatment, mice were euthanized and the ileum was collected to isolate IEC. One million IECs were then injected s.c. into the left flank of the recipient mice. The procedure was repeated once, 7 days later. Tumor challenge was performed on the right flank 7 days after the last immunization, with doses which obtain 100% of tumor incidence in naïve mice, MC38 (1×10^6 cells), MCA205 (0.8×10^6 cells), CT26 (1×10^6 cells) and 4T1 (0.3×10^6 cells).
FFPE gut sections were deparaffinised and rehydrated through a series of graded alcohols and distilled water. Antigen retrieval was performed by pre-treating sections with 0.01 M sodium citrate buffer (pH 6.0, Diapath) for 30 min in a 98° C. water bath. Endogenous peroxidase activity was inhibited by treating sections with 3% […] (#S202386, DAKO) for 10 min. Sections were blocked with IHC/ISH Super Blocking (#PV6122, LeicaBiosystem) for 10 min. […] Peroxidases were detected with Di Amino Benzidine-peroxidase substrate kit (DAKO), and counterstained with Mayer's haematoxylin. […]

ileal mucosae = assay: qRT-PCR of immune gene transcripts in ileal mucosae of avatar mice; format: in vivo; conditions: avatar responders compared to avatar non-responders
Experimental: Total RNA from gut biopsies was extracted with RNeasy Mini Kit (Qiagen) and then reverse transcribed into cDNA with the SuperScript III Reverse Transcriptase and the RNaseOUT™ Recombinant Ribonuclease Inhibitor (Life Technologies, Saint Aubin, France), in the presence of random primers (Promega, Charbonnieres, France) and the Deoxynucleoside Triphosphate Set, PCR grade (Roche Diagnostics, Meylan, France). cDNA was analyzed by real-time quantitative PCR (RT-qPCR) with the TaqMan method with TaqMan® Gene Expression Assays using the Universal Master Mix II (Invitrogen) according to the manufacturer's instructions using the 7500 Fast Real Time PCR system (Applied Biosystems). Expression was normalized to the expression of the housekeeping gene of Beta 2 Microglobulin by means of the 2^−ΔCt method.

naïve CD4+ T cells = assay: Differentiation of naive CD4+ T cells into Th1 cells by DCs charged with HIEC-6 (IFNg ELISA); format: cell-based, human; conditions: DCs charged with allogeneic HIEC-6 pre-exposed to bacteria and/or OXA; 6 healthy volunteers
Experimental: CD14+ cells were isolated from PBMC obtained from healthy donors (Miltenyi Kit). Monocytes were differentiated into DCs by adding GM-CSF and IL-4 in the culture medium for 6 days. On day 6, immature DCs were harvested and charged with apoptotic intestinal epithelial cells.
For apoptotic IEC cells preparation, HIEC-6 cells (ATCC) were treated with bacteria 1 h, OXA 3 h, and ATB 1 h, and then left ON. The next morning, Apoptotic cells were harvested, washed 3× in PBS and added to the DC culture.
Naïve CD4 T cells were isolated from the matched donor for each experiment (Miltenyi kit) and added to the DC-IEC culture at a 10:1 ratio. The final co-culture was incubated for 6 days. On day 6, anti-CD3 and anti-CD28 mAb were added to the culture. After 24 h incubation supernatants were assayed for IFNg by ELISA (Biolegend).

MC38 cancers = assay: MC38 tumor model in SPF mice, OXA + anti-PD-1 Abs plus oral gavage of live bacteria; format: in vivo, C57BL/6J mice; conditions: SPF mice (eubiosis), oral gavage of 10^9 cfu live bacteria before and after OXA
Experimental: as §1
PD-1 blockade was performed by i.p. treatment with anti-PD-1 mAbs (RMP1-14; 200 μg/mouse) or respective isotype controls (2A3) (all antibodies from Bioxcell).
Erysipelothrix tonsillarum and Solobacterium moorei were provided by Prof. Ivo Gomperts Boneca, Institut Pasteur, France. Bacteroides fragilis, Alistipes onderdonkii, Erysipelatoclostridium ramosum, Dialister invisus, Paraprevotella clara isolates were isolated in our laboratory from ileal mucus from patients used in vaccination experiments. Species were grown on COS plates in aerobic or an anaerobic atmosphere created using anaerobic generators (Biomerieux) at 37° C. for 24-72 hrs. Colonization of ATB pre-treated or GF C57BL/6J mice was performed by oral gavage with 100 μl of suspension containing 1×10^9 bacteria in PBS. For bacterial gavage, suspensions of 10^9 CFU/ml were obtained using a fluorescence spectrophotometer (Eppendorf) at an optical density of 1 measured at a wavelength of 600 nm. […]

Molecule | patient feces inducing complete resistance to OXA (avatar non-responders) (MC38 tumors) | patient feces resulting in antitumor efficacy of OXA comparable to SPF mice (avatar responders) (MC38 tumors) | apoptosis of enteroids [1] | apoptosis-associated cleavage of caspase-3 in vivo (ileal and colonic IEC) | ileal TH1/TFH immune tone (Tbx21, Bcl6, Il27, Gata3, Ahr expression) in response to OXA (ileal mucosae) | HIEC-6 rendered immunogenic (differentiation of T cells into Th1 cells, IFN-gamma) (naïve CD4+ T cells) | OXA+anti-PD-1 Ab-mediated anticancer effects against established MC38 cancers (MC38 cancers)
O=C1[O][Pt]2([NH][C@@H]3CCCC[C@H]3[NH]2)[O]C1=O [OXA, Oxaliplatin] | 4 | 8/12 | triggered a dose-dependent apoptosis | far more prominent in ileal than colonic IEC | decrease of the ileal TH1/TFH immune tone |  | 
Bacteroides fragilis |  |  |  |  |  | rendered immunogenic | improved OXA+anti-PD-1 Ab-mediated anticancer effects
